Measured values taken from ChEMBL document CHEMBL4477245, “Development of a Series of (1-Benzyl-3-(6-methoxypyrimidin-3-yl)-5-(trifluoromethoxy)-1H-indol-2-yl)methanols as Selective Protease Activated Receptor 4 (PAR4) Antagonists with in Vivo Utility and Activity Against γ-Thrombin” (J Med Chem, 2016).
Activity calls are given as the source filed them. No cut-off for these calls is given here.

Tests used:
[1] = target: T1, Proteinase-activated receptor 4 (Homo sapiens) (UniProt Q96RI0); assay: Antagonist activity against PAR4 activating peptide domain in human platelets assessed as inhibition of alpha2bbeta3 activation level at 10 uM by PAC1 binding assay
T1 sequence (whole entry): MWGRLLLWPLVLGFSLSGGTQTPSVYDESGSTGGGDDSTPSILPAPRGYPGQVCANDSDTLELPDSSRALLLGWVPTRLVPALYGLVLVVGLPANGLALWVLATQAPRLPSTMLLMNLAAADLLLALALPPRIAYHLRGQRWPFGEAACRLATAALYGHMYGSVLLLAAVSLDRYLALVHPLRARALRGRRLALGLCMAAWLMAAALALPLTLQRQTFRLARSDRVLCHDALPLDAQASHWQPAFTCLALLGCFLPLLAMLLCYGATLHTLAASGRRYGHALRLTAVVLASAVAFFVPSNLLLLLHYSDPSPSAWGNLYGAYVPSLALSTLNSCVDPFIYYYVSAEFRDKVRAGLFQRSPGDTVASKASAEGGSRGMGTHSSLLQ

[2] = target: T2, Proteinase-activated receptor 4 (Homo sapiens, UniProt Q96RI0); assay: Antagonist activity against PAR4 activating peptide domain in human platelets assessed as inhibition of alpha2bbeta3 activation level by PAC1 binding assay
T2 sequence (Q96RI0 whole entry): T1 sequence (whole entry)

[3] = target: T1, Proteinase-activated receptor 4 (Homo sapiens); assay: Mixed competitive/non-competitive inhibition of PAR4 activating peptide domain in human platelets assessed as inhibition of alpha2bbeta3 activation level by PAC1 binding assay based by Schild analysis
[4] = target: T3, Proteinase-activated receptor 1 (Homo sapiens, UniProt P25116); assay: Inhibition of PAR1 (unknown origin)
T3 sequence (P25116 whole entry): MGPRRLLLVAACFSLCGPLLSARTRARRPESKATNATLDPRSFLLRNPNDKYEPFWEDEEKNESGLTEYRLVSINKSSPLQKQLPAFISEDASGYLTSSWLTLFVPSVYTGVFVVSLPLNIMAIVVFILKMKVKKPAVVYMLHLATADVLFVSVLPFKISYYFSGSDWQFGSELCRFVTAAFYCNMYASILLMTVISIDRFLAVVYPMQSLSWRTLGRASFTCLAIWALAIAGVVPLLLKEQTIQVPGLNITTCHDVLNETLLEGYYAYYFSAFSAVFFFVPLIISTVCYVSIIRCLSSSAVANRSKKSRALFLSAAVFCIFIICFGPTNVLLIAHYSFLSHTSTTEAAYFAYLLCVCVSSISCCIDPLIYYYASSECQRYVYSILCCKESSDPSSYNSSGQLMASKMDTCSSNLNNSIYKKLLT

[5] = Unbound protein binding in human plasma; assay type: ADME, cell-free
[6] = Unbound protein binding in rat plasma; assay type: ADME, cell-free
[7] = target: T1, Proteinase-activated receptor 4 (Homo sapiens); assay: Antagonist activity at PAR4 TL domain in human platelets assessed as gamma-thrombin-induced PAC1 binding response at 10 uM preincubated for 20 mins followed by agonist addition for 20 mins by FITC based flow cytometric analysis
Cytochrome P450 2C9 = Cytochrome P450 2C9 (Homo sapiens, UniProt P11712); assay: Inhibition of CYP2C9 in human liver microsomes incubated for 15 mins using diclofenac substrate in presence of NADPH by LC-MS/MS method
[8] = target: T2, Proteinase-activated receptor 4; assay: Antagonist activity against PAR4 activating peptide domain in human platelets assessed as inhibition of P-selectin activation
[9] = Unbound protein binding in rat plasma at 5 uM after 4 hrs by LC/MS/MS analysis
[10] = Half life in Sprague-Dawley rat at 0.2 mg/kg, iv through cassette dosing up to 6 hrs by LC-MS/MS method; conditions: in vivo
Cytochrome P450 2D6 = Cytochrome P450 2D6 (Homo sapiens, UniProt P10635); assay: Inhibition of CYP2D6 in human liver microsomes incubated for 15 mins using dextromethorphan substrate in presence of NADPH by LC-MS/MS method
Cytochrome P450 3A4 = Cytochrome P450 3A4 (Homo sapiens, UniProt P08684); assay: Inhibition of CYP3A4 in human liver microsomes incubated for 15 mins using midazolam substrate in presence of NADPH by LC-MS/MS method
Cytochrome P450 1A2 = target: T4, Cytochrome P450 1A2 (Homo sapiens, UniProt P05177); assay: Inhibition of CYP1A2 in human liver microsomes incubated for 15 mins using phenacetin substrate in presence of NADPH by LC-MS/MS method
T4 sequence (P05177 whole entry): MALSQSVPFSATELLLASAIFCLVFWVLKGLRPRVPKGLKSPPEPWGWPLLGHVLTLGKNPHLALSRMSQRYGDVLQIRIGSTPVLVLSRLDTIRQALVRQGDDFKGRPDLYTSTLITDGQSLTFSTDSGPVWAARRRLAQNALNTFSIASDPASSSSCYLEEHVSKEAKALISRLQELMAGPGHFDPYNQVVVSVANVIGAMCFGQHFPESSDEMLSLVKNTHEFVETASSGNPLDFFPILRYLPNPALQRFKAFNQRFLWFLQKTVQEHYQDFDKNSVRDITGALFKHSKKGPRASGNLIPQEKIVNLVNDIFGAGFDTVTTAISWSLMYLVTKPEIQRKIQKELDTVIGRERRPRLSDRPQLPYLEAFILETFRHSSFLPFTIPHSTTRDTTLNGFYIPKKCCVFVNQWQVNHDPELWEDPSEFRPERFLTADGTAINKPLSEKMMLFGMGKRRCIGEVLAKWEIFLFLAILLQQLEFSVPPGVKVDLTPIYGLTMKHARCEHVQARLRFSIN

[11] = target: T2, Proteinase-activated receptor 4; assay: Antagonist activity at PAR4 TL domain in human platelets assessed as gamma-thrombin-induced PAC1 binding response preincubated for 20 mins followed by agonist addition for 20 mins by FITC based flow cytometric analysis
[12] = Unbound protein binding in human plasma at 5 uM after 4 hrs by LC/MS/MS analysis
[13] = Volume of distribution in steady state in Sprague-Dawley rat at 0.2 mg/kg, iv through cassette dosing up to 6 hrs by LC-MS/MS method; conditions: in vivo

Chain of Cytochrome P450 3A4 (P08684 whole entry): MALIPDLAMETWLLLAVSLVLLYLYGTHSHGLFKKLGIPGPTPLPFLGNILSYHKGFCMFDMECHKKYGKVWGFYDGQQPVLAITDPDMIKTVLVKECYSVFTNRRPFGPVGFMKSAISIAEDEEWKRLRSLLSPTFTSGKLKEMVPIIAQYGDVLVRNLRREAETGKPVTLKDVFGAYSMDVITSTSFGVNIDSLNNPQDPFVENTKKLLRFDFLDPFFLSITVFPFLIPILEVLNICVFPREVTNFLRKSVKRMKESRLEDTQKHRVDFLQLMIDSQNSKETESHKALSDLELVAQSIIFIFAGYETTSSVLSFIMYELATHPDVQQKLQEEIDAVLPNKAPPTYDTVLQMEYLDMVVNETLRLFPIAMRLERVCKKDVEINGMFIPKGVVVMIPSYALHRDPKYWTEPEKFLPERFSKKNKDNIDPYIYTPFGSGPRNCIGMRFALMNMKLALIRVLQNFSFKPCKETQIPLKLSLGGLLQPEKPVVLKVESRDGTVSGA
Chain of Cytochrome P450 2D6 (P10635 whole entry): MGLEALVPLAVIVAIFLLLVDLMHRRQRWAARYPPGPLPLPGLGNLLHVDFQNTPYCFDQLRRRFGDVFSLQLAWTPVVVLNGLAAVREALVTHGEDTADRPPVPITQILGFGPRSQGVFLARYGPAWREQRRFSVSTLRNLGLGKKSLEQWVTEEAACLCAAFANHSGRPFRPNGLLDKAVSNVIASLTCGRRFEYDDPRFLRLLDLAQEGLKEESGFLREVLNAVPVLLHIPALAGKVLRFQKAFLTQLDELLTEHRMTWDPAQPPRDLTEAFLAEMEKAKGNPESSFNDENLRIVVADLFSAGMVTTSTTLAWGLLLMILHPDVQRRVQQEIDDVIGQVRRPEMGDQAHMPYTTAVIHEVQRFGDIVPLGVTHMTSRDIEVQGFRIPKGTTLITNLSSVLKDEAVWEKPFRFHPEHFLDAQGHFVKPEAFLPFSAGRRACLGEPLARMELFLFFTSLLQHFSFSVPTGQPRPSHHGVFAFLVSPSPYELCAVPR
Chain of Cytochrome P450 2C9 (P11712 whole entry, the tested form may be a part): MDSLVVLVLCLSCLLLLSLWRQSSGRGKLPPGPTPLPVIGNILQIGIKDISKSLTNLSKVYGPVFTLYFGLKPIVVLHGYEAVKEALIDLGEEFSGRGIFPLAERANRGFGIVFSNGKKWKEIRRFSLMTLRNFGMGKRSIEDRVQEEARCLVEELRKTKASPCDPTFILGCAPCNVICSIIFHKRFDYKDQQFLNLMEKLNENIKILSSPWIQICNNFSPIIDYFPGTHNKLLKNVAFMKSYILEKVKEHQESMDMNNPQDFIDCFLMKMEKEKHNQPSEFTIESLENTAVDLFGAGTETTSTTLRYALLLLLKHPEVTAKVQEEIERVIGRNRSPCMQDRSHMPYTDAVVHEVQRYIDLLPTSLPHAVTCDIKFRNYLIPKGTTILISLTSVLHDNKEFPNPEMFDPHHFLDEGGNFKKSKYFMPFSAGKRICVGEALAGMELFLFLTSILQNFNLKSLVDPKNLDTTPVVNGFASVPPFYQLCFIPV

Row | SMILES | %max [1] | IC50 [2] | also measured
1 | COc1ccc(-c2c(CO)n(Cc3cccc(Cl)c3)c3ccc(OC(F)(F)F)cc23)cn1 | 95.5% | > 10 µM | 
2 | COc1ccc(-c2c(CO)n(Cc3ccccc3)c3ccc(OC(F)(F)F)cc23)cn1 | 53.4% | > 10 µM | 
3 | COc1ccc(-c2c(CO)n(Cc3ccccc3Cl)c3ccc(OC(F)(F)F)cc23)cn1 |  |  | inhibition [3]: Active
4 | COc1ccc2c(-c3cnc(SC)nc3)c(CO)n(Cc3ccccc3Cl)c2c1 | 21.3% | 4.15 µM | 
5 | COc1ccc(-c2c(CO)n(Cc3cccc(Br)c3)c3ccc(OC(F)(F)F)cc23)cn1 | 27.1% | 2.19 µM | 
6 | COc1ccc(-c2c(CO)n(Cc3cccc(C(F)(F)F)c3)c3ccc(OC(F)(F)F)cc23)cn1 | 19.7% | 4.82 µM | 
7 | COc1ccc(-c2c(CO)n(Cc3ccccc3Cl)c3cc(OC(F)(F)F)ccc23)cn1 | 12.3% | 0.93 µM | IC50 [4]: > 30 µM
8 | CCOc1ncc(-c2c(CO)n(Cc3ccccc3Cl)c3ccc(OC(F)(F)F)cc23)cn1 | 35.4% | 4.91 µM | 
9 | COc1ncc(-c2c(CO)n(Cc3ccccc3Cl)c3ccc(OC(F)(F)F)cc23)cn1 | 7.95% | 1.5 µM | 
10 | CCOc1ccc2c(-c3ccc(OC)nc3)c(CO)n(Cc3ccccc3Cl)c2c1 | 19.7% | 3.76 µM | 
11 | CCOC(=O)c1ccc(-c2cn(Cc3ccccc3)c3ccccc23)cc1 |  |  | PB [5]: Unstable; PB [6]: Unstable
12 | OCc1c(-c2ccncc2)c2cc(OC(F)(F)F)ccc2n1Cc1ccccc1Cl | 101% | > 10 µM | 
13 | CCOC(=O)c1ccc(-c2nn(Cc3ccccc3)c3ccccc23)cc1 |  |  | PB [5]: Unstable; PB [6]: Unstable
14 | OCc1c(-c2cncnc2)c2cc(OC(F)(F)F)ccc2n1Cc1ccc(F)cc1F | 96.1% | > 10 µM | 
15 | COc1ccc(-c2c(CO)n(Cc3ccccc3F)c3ccc(OC(F)(F)F)cc23)cn1 | 89% | > 10 µM | 
16 | COc1ncc(-c2c(CO)n(Cc3ccc(F)cc3F)c3ccc(OC(F)(F)F)cc23)cn1 | 53.6% |  | 

Continued, in another order:

Row | %max [1] | IC50 [2] | SMILES | also measured
17 | 106% | > 10 µM | COc1ccc(-c2c(CO)n(C)c3ccc(C(F)(F)F)cc23)cn1 | 
18 | 15.6% | 1.49 µM | CSc1ncc(-c2c(CO)n(Cc3ccc(F)cc3F)c3ccc(OC(F)(F)F)cc23)cn1 | 
19 | 5.57% | 0.21 µM | CSc1ncc(-c2c(CO)n(Cc3ccccc3Cl)c3cc(OC(F)(F)F)ccc23)cn1 | IC50 [4]: > 30 µM
20 | 19.7% | 5.11 µM | COc1ccc(-c2c(CO)n(Cc3ccc(F)cc3F)c3ccc(OC(F)(F)F)cc23)cn1 | IC50 [4]: > 30 µM
21 | 80.6% | > 10 µM | COc1ccc(-c2c(CO)n(Cc3cccc(F)c3)c3ccc(OC(F)(F)F)cc23)cn1 | 
22 | 3.2% | 0.18 µM | COc1nn2cc(-c3c(CO)n(Cc4ccccc4Cl)c4ccc(OC(F)(F)F)cc34)nc2s1 | inhibition [7]: 39.4%; IC50 (Cytochrome P450 2C9): 11.2 µM; IC50 [4]: > 30 µM; IC50 [8]: 0.132 µM; Fu [9]: 0.003; t1/2 [10]: 6.1 h; IC50 (Cytochrome P450 2D6): 1.2 µM; IC50 (Cytochrome P450 3A4): > 30 µM; IC50 (Cytochrome P450 1A2): > 30 µM; IC50 [11]: 4.35 µM; Fu [12]: 0.004; Vdss [13]: 21.1 L/kg; inhibition [3]: Active
23 | 108% | > 10 µM | COc1cccc(Cn2c(CO)c(-c3ccc(OC)nc3)c3cc(C(F)(F)F)ccc32)c1 | 
24 | 4.31% | 1.39 µM | COc1ccc2c(-c3ccc(OC)nc3)c(CO)n(Cc3ccccc3Cl)c2c1 | 
